Measurements published in patent US20220324912A1, “THERAPEUTIC PEPTIDES” (COHBAR, INC., priority 2019, published 2022).
Non-standard residues stand in square brackets, D forms with d. Residues, ends and D or L forms follow the SMILES beside them. No end group written: not given here.

Key:
[1] = Stability in Mouse Plasma; assay type: in vitro ADME; conditions: pooled mouse plasma, 37° C., peptides 100 DM
Experimental: Peptides (100 DM) were incubated in pooled mouse plasma at 37° C. and samples were removed and immediately analyzed for the concentration of intact peptide by LC/MS/MS over the course of 3 hours. The percent of peptide remaining in plasma at each time point was calculated relative to the initial peak area (Table 9).

[2] = test system: 3T3-L1 adipocytes; assay: Free Fatty Acid Levels in 3T3-L1 Adipocytes (Example 4, 25 μM); assay type: cell-based, mouse; conditions: peptides 25 μM, 20-22 hours then 3 hours with isoproterenol 1 nM, 3T3-L1 adipocytes
Experimental: Following 12-15 days' differentiation, test peptides were added to a final concentration of 25 μM and incubated for 20-22 hours in Adipocyte Maintenance Medium. After 20-22 hours, isoproterenol (1 nM) was added to all wells except untreated controls and test peptides were replenished. Cells were incubated for a further 3 hours in Assay Buffer (Zen-Bio). Free fatty acid concentrations in the media were determined using a Free Fatty Acid Assay Kit (Zen-Bio) according to the manufacturer's instructions using a plate reader (540 nm). Absorbance values were corrected for untreated background and expressed relative to isoproterenol treated cells. Treatment with isoproterenol (1 nM) alone was used as the free fatty acid level stimulatory control. The relative standard deviation of the isoproterenol control was <10%. […] Free fatty acid levels for insulin (100 nM) treatment were <5% of the isoproterenol control value.

[3] = test system: 3T3-L1 mouse adipocytes; assay: Free Fatty Acid Levels in 3T3-L1 Mouse Adipocytes (Example 12, 10 μM); assay type: cell-based; conditions: peptides 10 μM, 20-22 hours then 3 hours with isoproterenol 1 nM, 3T3-L1 mouse adipocytes
Experimental: The effect of the peptides on fatty acid metabolism can be assessed using an assay of free fatty acid levels in cultured cells such as mouse adipocytes. Peptides were initially prepared as 10 mM stock in DMSO, diluted to 1 mM in H2O, and used at a final concentration of 10 μM (0.1% DMSO). […] After 20-22 hours, 1 nM isoproterenol was added to all wells except untreated controls and test peptides were replenished. Insulin at 100 nM was added to control wells. […] Free fatty acid concentrations in the media were determined using a Free Fatty Acid Assay kit (Zen-Bio) according to the manufacturer's instructions using a Cytation 3 plate reader at 540 nm (BioTek, Winooski, Vt.). Absorbance values were corrected for untreated background and expressed relative to isoproterenol treated cells. Treatment with isoproterenol (1 nM) alone was used as the free fatty acid level stimulatory control. The relative standard deviation of the isoproterenol control was <10%. […] Free fatty acid levels for insulin (100 nM) treatment were <5% of the isoproterenol control value.

[4] = test system: C2C12 cells; assay: Cell Proliferation in C2C12 Cells (Cyquant DNA dye); assay type: cell-based, mouse
Experimental: The effect of the peptides on cell proliferation was assessed using a DNA dye binding assay in cultured cells such as mouse myoblast cells. Peptides were initially prepared as 10 mM stock in DMSO, diluted to 1 mM in H2O, and added at a final concentration of 10 μM (0.1% DMSO). Lovastatin was used as a growth arrest control at final concentration of […]. […] C2C12 cells were grown in DMEM supplemented with 20% FBS with 100 IU/ml penicillin and 100 μg/ml streptomycin. […] C2C12 cells were seeded at 800 cells per well on 96-well plates. […] Cell proliferation was determined using Cyquant Direct Nucleic Acid Stain (Thermo Fisher Scientific, Waltham, Mass.) according to the manufacturer's instructions. Fluorescence for each sample well on the plate was measured using a Cytation 3 plate reader at Ex/Em=495/535 nm (BioTek, Winooski, Vt.). Activity was calculated relative to 0.1% DMSO untreated control. The relative standard deviation for the lovastatin control was <27%. The cell proliferation for the lovastatin control was <25% of the value for untreated control.

[5] = test system: C2C12 cells; assay: Cellular ROS Levels Induced by TBHP in C2C12 Cells (DCFDA); assay type: cell-based, mouse; conditions: peptides 10 μM, 18-20 hours, then TBHP 100 μM 1 hour, relative to TBHP control
Experimental: The protective or synergistic effect of the peptides on cellular levels of reactive oxygen species (ROS) induced by oxidative stress can be assessed using an assay of ROS in cultured cells such as mouse myoblasts exposed to a suitable oxidative stress. Peptides were initially prepared as 10 mM stock in DMSO, diluted to 1 mM in H2O, and added at a final concentration of 10 μM (0.1% DMSO). […] TBHP was used at final concentration of 100 μM. Sulforaphane at final concentration of 10 µM was used as a protective control against TBHP induced ROS production. […] C2C12 cells were grown in DMEM supplemented with 20% FBS with 100 IU/ml penicillin and 100 μg/ml streptomycin. […] C2C12 cells were seeded at 7,500 cells per well on 96-well plates. […] After 18-20 hours of incubation the cells were loaded with DCFDA for 45 min. TBHP at 100 μM was then added to the appropriate wells for 1 hour. ROS activity was determined using a DCFDA Cellular ROS Detection Assay kit (Abcam, Cambridge, Mass.) according to the manufacturer's instructions. Fluorescence in each sample well on the plate was measured using a Cytation 3 plate reader at Ex/Em=485/535 nm (BioTek, Winooski, Vt.). Activity was calculated relative to TBHP control. The relative standard deviation of the sulforaphane control was <20%. The ROS level produced by the sulforaphane control in the presence of TBHP was 52% of the TBHP control.

[6] = test system: DIO mice; assay: Metabolic parameters in DIO mice, twice daily intraperitoneal, 10 days (Example 16); assay type: in vivo, mouse; conditions: 5 mg/kg, male DIO mice
Experimental: Male C57BL/6 mice were maintained on a high fat diet for 18 weeks to develop diet induced obesity. Animals were randomized to treatment groups based on blood glucose levels and body weight. The peptides of the invention were administered to groups of male DIO mice twice daily by intraperitoneal injection at a dose of 5 mg/kg/dose for 10 days (N=8 animals per treatment group). An additional group of male DIO mice (n=8) received vehicle (water) alone administered twice daily by intraperitoneal injection. Body weight, blood glucose levels and food intake were monitored. Body mass distribution (fat vs lean) was determined by quantitative whole body NMR prior to dosing and at the end of dosing.

CC[C@H](C)[C@H](NC(=O)[C@H](C)NC(=O)[C@H](CO)NC(=O)CNC(=O)[C@@H]1CCCN1C(=O)[C@H](CC(C)C)NC(=O)[C@@H](N)CCCNC(=N)N)C(=O)N[C@@H](CC(C)C)C(=O)N[C@H](C(=O)N[C@@H](CC(N)=O)C(=O)N1CCC[C@H]1C(=O)N[C@H](C(=O)N[C@@H](CC(C)C)C(=O)NCC(=O)N[C@@H](Cc1c[nH]c2ccccc12)C(=O)N[C@H](C(=O)N[C@@H](Cc1c[nH]c2ccccc12)C(=O)N[C@H](C(=O)O)C(C)C)C(C)C)C(C)C)[C@@H](C)O [compound 8] (H-RLPGSAILTNPVLGWVWV-OH)
% Remaining at 0 min ([1]; 0 min): 100%
remaining at 0.25 h, 100 DM ([1]; 15 min): 84.9%
remaining at 0.5 h, 100 DM ([1]; 30 min): 82.7%
remaining at 1 h, 100 DM ([1]; 60 min): 70.9%
remaining at 2 h, 100 DM ([1]; 120 min): 58.7%
remaining at 3 h, 100 DM ([1]; 180 min): 45%

31 (WAIDEKAVEASGE) [compound 31]
Free fatty acid levels, Percent of Control Value (percent isoproterenol control) [2]: 115%

21 (TFQKTHNLNQHNHPQPNY) [compound 21]
Free fatty acid levels, Percent of Control Value (percent isoproterenol control) [2]: 91%

32 (W[dA]IDEKAVEASGE) [compound 32]
Free fatty acid levels, Percent of Control Value (percent isoproterenol control) [2]: 102%

28 (VKAPLSEGGHPWGREG) [compound 28]
Free fatty acid levels, Percent of Control Value (percent isoproterenol control) [2]: 135%

5 (LAVRRTARA[dA]) [compound 5]
Free fatty acid levels, Percent of Control Value (percent isoproterenol control) [2]: 109%

14 (MRLPGPAILTNPVLGWVWV) [compound 14]
Free fatty acid levels, Percent of Isoproterenol Control Activity [3]: 80.8%
Cell proliferation, Percent of Control ([4]; peptides 10 μM, 72 hours with readdition every 24 hours, relative to 0.1% DMSO control): 93.2%
Cellular ROS levels induced by TBHP, Percent of Control [5]: 106.0%
Difference from Vehicle Control: Decrease from Baseline in Blood Glucose [6]: -6.12 mg/dL
Difference from Vehicle Control: Decrease from Baseline in Body Weight [6]: −2.48%
Difference from Vehicle Control: Decrease from Baseline in Fat Mass [6]: -0.93 g

33 (W[dA]IDEKAVE[dA]SGE) [compound 33]
Free fatty acid levels, Percent of Control Value (percent isoproterenol control) [2]: 92%

CC[C@H](C)C(=O)O[C@H]1C[C@@H](C)C=C2C=C[C@H](C)[C@H](CC[C@@H]3C[C@@H](O)CC(=O)O3)[C@H]21 [lovastatin, reference compound]
Cell proliferation, % of the value for untreated control ([4]; lovastatin 10 μM, 72 hours): < 25%

3 (LAVRRTARAIG) [compound 3]
Free fatty acid levels, Percent of Control Value (percent isoproterenol control) [2]: 91%
